# Assay results: publication PMC8391236, “Effect of Pterostilbene, a Natural Derivative of Resveratrol, in the Treatment of Colorectal Cancer through Top1/Tdp1-Mediated DNA Repair Pathway” (Cancers, 2021)
# How the values were obtained:
# siRNA-Top1 CL187 cells [1] = assay: Cell viability of Top1-silenced cells; format: cell-based; details: Homo sapiens, 36 h, siRNA-Top1 CL187, 36 h
# Tdp1 = assay: Western blot of Tdp1 protein in cells; format: cell-based, Human; details: 6 h
# Experimental: CL187 cells were treated with RE or PTE for 6 or 12 h, collected, and placed into lysis buffer (KeyGEN BioTECH, Nanjing, China). The total protein content in the cell lysates was measured using a BCA kit. Equivalent amount of total protein (30 μg) was loaded onto 10% SDS-PAGE gel. Electrophoresis was performed at 80 V for 25 min. After the sample went through concentrated gel, the voltage was adjusted to 120 V. Electrophoresis was stopped when the bromophenol blue band approached the bottom of the gel. After being transferred to PVDF membranes, the samples were incubated separately with 3 types of primary antibodies Top1, Tdp1, and P53 rabbit mAb (CST, Boston, MA, USA), followed by the incubation with secondary antibody goat anti-rabbit IgG (HRP)-conjugated (1:3000). ECL kit (New Cell and Molecular Biotech, Suzhou, China) was used for color development, and the images were collected by the gel imaging system (Tanon-5200, Shanghai, China).
# siRNA-Top1 CL187 cells [2] = assay: Apoptosis by flow cytometry; format: cell-based, Human; details: 48 h
# Experimental: (§1) Exponentially growing CL187 cells were seeded in 6-well plates (1.2 × 10^6 cells/well) until a well was filled with cells. The RE or PTE at various concentrations were added separately into plate wells and incubated with cells for 48 h. The incubated cells were collected and treated by Annexin V-FITC/PI Apoptosis Detection Kit. The stained cells were analyzed with a flow cytometer (Becton-Dickinson, Franklin Lakes, NJ, USA), and data analyses were performed with BD Cell Quest^TM pro 6.0..
# siRNA-Tdp1 CL187 cells = assay: Apoptosis by flow cytometry; format: cell-based, Human; details: 48 h
# Experimental: as §1
# Tdp1-over CL187 cells = assay: Apoptosis by flow cytometry; format: cell-based, Human; details: 48 h
# Experimental: as §1
# Top1 mRNA = assay: qPCR of Top1 mRNA in cells; format: cell-based, Human; details: 6 h
# Experimental: CL187 cells were treated with different concentrations of RE and PTE for 6, 12, 24 h, collected, and added with TRIzol (Thermo Fisher Scientific, Waltham, MA, USA). RNA was precipitated by isopropyl alcohol and washed with 75% ethanol prepared from diethylpyrocarbonate (DEPC) water. The obtained total RNA was dissolved in DEPC water and reverse transcribed into cDNA by a Hifair Ⅲ 1st strand cDNA Synthesis SuperMix for qPCR Kit (Yeasen Biotech, Shanghai, China). The resultant cDNA was used as a template, and the primer sequences were (5′→3′): Top1: F: […], R: […]; Tdp1: F: ACCAGAGTTCAGGAAGAAG, R: TCATAGAGCAGCAGCATC. GAPDH: F: […], R: TCTTCCTCTTGTGCTCTTG. Transcription levels of Top1, Tdp1, and GAPDH genes were determined by qPCR. The qPCR was performed as follows: 95 °C for 10 min, 40 cycles of 95 °C for 10 s, and 60 °C for 30 s. The cycle threshold (Ct) value was determined, and the RQ value was calculated.
# Top1 = target: T1, Top1 (Homo sapiens, UniProt P11387); assay: Direct Top1 enzyme activity (DNA relaxation) assay; format: biochemical; details: gel electrophoresis
# T1 construct: purchased TopoGEN, Buena Vista, CO, USA
# T1 sequence (P11387 1-765): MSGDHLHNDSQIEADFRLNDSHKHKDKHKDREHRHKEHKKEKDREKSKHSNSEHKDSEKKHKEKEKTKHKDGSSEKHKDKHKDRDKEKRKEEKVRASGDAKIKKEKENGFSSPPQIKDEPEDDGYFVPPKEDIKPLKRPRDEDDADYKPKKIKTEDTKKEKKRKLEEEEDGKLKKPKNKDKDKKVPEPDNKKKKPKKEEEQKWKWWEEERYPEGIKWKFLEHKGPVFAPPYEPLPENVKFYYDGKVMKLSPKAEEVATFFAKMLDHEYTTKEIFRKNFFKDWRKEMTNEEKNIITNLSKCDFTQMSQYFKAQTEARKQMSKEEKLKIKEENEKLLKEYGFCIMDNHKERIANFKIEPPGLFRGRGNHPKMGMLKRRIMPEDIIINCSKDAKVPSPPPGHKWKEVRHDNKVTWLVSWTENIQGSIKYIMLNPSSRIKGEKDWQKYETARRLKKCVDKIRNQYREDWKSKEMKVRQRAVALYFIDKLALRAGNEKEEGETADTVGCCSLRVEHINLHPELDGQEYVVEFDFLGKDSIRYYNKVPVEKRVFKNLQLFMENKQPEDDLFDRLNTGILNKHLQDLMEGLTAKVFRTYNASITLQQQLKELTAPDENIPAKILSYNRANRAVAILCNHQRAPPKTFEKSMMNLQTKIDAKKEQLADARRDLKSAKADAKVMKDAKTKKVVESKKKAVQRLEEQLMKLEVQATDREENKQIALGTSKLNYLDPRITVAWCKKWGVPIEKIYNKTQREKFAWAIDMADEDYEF
# Experimental: Different concentrations of the drug solution were prepared. The solvent was used as negative control group, and CPT (50 μM) was used as the positive control group. Each sample included 2 units of Top1 (TopoGEN, Buena Vista, CO, USA) and 250 ng super helical DNA (pHOT-1, TopoGEN, Buena Vista, CO, USA). The samples were incubated for 30 min at 37 °C, and then the reaction was stopped with SDS. After digestion with proteinase K (50 μg/mL, 60 min at 37 °C), samples were separated through electrophoresis (1% agarose gel). The electrophoresis was conducted at 180 V constant pressure for 20 min. The gel was immersed in the dye without EB for 30 min, and the images were collected by gel imaging system (Tanon-1600B, Shanghai, China).
smiles,measurement,setting,value
"COc1cc(/C=C/c2ccc(O)cc2)cc(OC)c1 [PTE, 3,5-dimethoxy-4′-hydroxy-trans-stilbene]",IC50,siRNA-Top1 CL187 cells [1],49 ± 10.1 µM
same,Tdp1 protein content,Tdp1; Tdp1-over CL187 cells,reduced in dese-dependent manner
same,Tdp1 protein content,Tdp1; siRNA-Top1 CL187 cells,reduced in a dose-dependent manner
same,Tdp1 protein content,Tdp1; wild-type CL187 cells,"decreased in PTE treatment group, but neither in dese-dependent and significant manner"
same,cell apoptotic proportion,"siRNA-Top1 CL187 cells [2]; siRNA-Top1 CL187, 10 μM",25.29%
same,cell apoptotic proportion,"siRNA-Top1 CL187 cells [2]; siRNA-Top1 CL187, 20 μM",29.42%
same,cell apoptotic proportion,"siRNA-Top1 CL187 cells [2]; siRNA-Top1 CL187, 50 μM",33.93%
same,cell apoptotic proportion,"siRNA-Tdp1 CL187 cells; siRNA-Tdp1 CL187, 10 μM",18.16%
same,cell apoptotic proportion,"siRNA-Tdp1 CL187 cells; siRNA-Tdp1 CL187, 20 μM",20.92%
same,cell apoptotic proportion,"siRNA-Tdp1 CL187 cells; siRNA-Tdp1 CL187, 50 μM",24.38%
same,cell apoptotic proportion,"Tdp1-over CL187 cells; Tdp1-over CL187, 10 μM",26.80%
same,cell apoptotic proportion,"Tdp1-over CL187 cells; Tdp1-over CL187, 20 μM",31.81%
same,cell apoptotic proportion,"Tdp1-over CL187 cells; Tdp1-over CL187, 50 μM",32.87%
same,Top1 mRNA expression,Top1 mRNA; Tdp1-over CL187 cells,"suppressed, but there was no significant difference"
same,Top1 mRNA expression,Top1 mRNA; siRNA-Tdp1 CL187 cells,significantly down-regulated
same,Top1 mRNA expression,Top1 mRNA; wild-type CL187 cells,significantly inhibited
same,inhibition of Top1 enzyme activity (SC DNA relaxation),"Top1; 30 min incubation, CPT at 50 uM",had the ability to inhibit Top1 enzyme activity in a dose-dependent manner
same,concentration exhibiting the same inhibitory effect on Top1 enzyme activity,"Top1; relaxation of supercoiled pHOT-1 DNA, 30 min",20 µM
